Results on 21 compounds are retold here after ChEMBL document CHEMBL1138977, “Design and synthesis of novel 5,6-disubstituted uracil derivatives as potent inhibitors of thymidine phosphorylase” (Bioorg Med Chem Lett, 2006).

Chain of Thymidine phosphorylase (P07650 whole entry): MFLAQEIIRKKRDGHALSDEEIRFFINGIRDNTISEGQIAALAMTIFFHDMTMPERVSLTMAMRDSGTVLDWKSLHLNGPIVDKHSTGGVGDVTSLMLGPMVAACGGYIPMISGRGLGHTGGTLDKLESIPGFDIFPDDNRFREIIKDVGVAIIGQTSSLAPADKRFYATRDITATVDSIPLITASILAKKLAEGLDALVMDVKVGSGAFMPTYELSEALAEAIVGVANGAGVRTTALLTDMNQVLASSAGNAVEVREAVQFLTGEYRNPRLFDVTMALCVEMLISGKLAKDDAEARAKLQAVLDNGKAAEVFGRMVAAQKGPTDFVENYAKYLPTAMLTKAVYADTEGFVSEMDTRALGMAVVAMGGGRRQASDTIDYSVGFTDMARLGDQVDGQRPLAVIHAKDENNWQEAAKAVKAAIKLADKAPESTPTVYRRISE

This assay concerns the target Thymidine phosphorylase (Escherichia coli K-12, UniProt P07650). Briefly: Inhibition of Escherichia coli TP.
`Oc1nc(O)c(Br)c(N2CCC2)n1`: the IC50 is 2 µM.
`OCCC1CCN(c2nc(O)nc(O)c2Br)CC1`: the 50% inhibitory concentration (IC50) is 6.1 µM.
The result for `Oc1nc(O)c(Br)c(NCCNc2nc(O)nc(O)c2Br)n1` reads 2.5 µM; that for `Oc1nc(O)c(Cl)c(N2CCCCC2)n1`, 7.3 µM.
The same measure for `Oc1nc(O)c(Cl)c(N2CCC2)n1`: 14 µM.
`Oc1nc(O)c(Cl)c(N2CCOCC2)n1` registered a half-inhibitory concentration (IC50) of 10.4 µM.
The same measure for `OCC1CCN(c2nc(O)nc(O)c2Br)CC1`: 5.5 µM; for `OCC1CCCN(c2nc(O)nc(O)c2Br)C1` (stereo unspecified): 6.5 µM; for `OCC1CCCCN1c1nc(O)nc(O)c1Br` (stereo unspecified): 6.5 µM.
The same measure for `OCC1CCCN(c2nc(O)nc(O)c2Cl)C1` (stereo unspecified): 5.4 µM; for `Oc1nc(O)c(Br)c(N2CCOCC2)n1`: 11.6 µM.
The same measure for `Oc1nc(O)c(Br)c(NC2CC2)n1`: 3.5 µM; for `Oc1nc(O)c(Cl)c(NC2CC2)n1`: 10.1 µM; for `OCC1CCCCN1c1nc(O)nc(O)c1Cl` (stereo unspecified): 4.3 µM.
With `Oc1nc(O)c(Cl)c(N2CCN(c3nc(O)nc(O)c3Cl)CC2)n1`, inhibition was half-maximal at 8.7 µM (IC50).
The same measure for `Nc1[nH]c(=O)[nH]c(=O)c1Cl`: 4 µM; for `Oc1nc(O)c(Br)c(N2CCCCC2)n1`: 9.1 µM.
The result for `Oc1nc(O)c(Br)c(N2CCN(c3nc(O)nc(O)c3Br)CC2)n1` reads 2.3 µM.
The same measure for `Oc1nc(O)c(Cl)c(N2CCCC2)n1`: 4.4 µM; for `NNc1nc(O)nc(O)c1Cl`: 9.1 µM; for `OCCC1CCN(c2nc(O)nc(O)c2Cl)CC1`: 5.5 µM.
